The text below walks through data of patent US9550796B2, “Pyrrolopyrrolone derivatives and their use as BET inhibitors” (NOVARTIS AG, priority 2013, dated 2017).

The target of one assay is CREBBP (Homo sapiens (Human), UniProt Q92793). Description: AlphaScreen in-vitro binding assay for CREBBP. Conditions: 324 nM His-CREBBP (1081-1197), acetyl-histone H4 (AcK 5, 8, 12) peptide. The gist of the method: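 IC50 values were derived by non-linear regression of percent inhibition across 8 compound concentrations. Protein was His-tagged CREBBP bromodomain (1081-1197), peptide acetyl-histone H4 (AcK 5, 8, 12), in HEPES pH 7.5 buffer. Read-out was AlphaScreen with Ni-chelate acceptor and streptavidin donor beads, 35 min at 30° C then 60 min at RT.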
Background: Alpha assays give light when donor and acceptor beads are brought close together.

A further assay concerns K-562. Description: Cell growth inhibition assay (CellTiter-Glo), K-562. Conditions: K-562 cells, 4 days; for GI50: Homo sapiens, K562, 96 h, half-maximal growth inhibition; for K-562 TGI: total growth inhibition. Format: cell-based, human. The gist of the method: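 A separate day 0 plate allows cytotoxic and cytostatic effects to be distinguished: viable-cell ATP after 4-day compound treatment (top 10 μM, 3-fold steps) is expressed relative to it. DMSO-only wells count as 100% and medium-only wells as −100%.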

What is called IC50 is the midpoint of a concentration-inhibition curve. A lower IC50 goes with greater potency. What is called GI50 is the concentration giving 50% growth inhibition. Read a low GI50 as greater sensitivity of the cells.

Sequence of CREBBP (Q92793 1081-1197): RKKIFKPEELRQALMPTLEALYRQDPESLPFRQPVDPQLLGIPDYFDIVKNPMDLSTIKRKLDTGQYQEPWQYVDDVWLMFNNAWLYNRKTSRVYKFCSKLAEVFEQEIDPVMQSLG

In turn, `COc1ncc(-c2cc3c(n2C)C(c2ccc(Cl)cc2)N(c2cc(Cl)c(=O)n(C)c2)C3=O)c(OC)n1` (stereo not drawn) [Example 38, 5-(5-chloro-1-methyl-6-oxo-1,6-dihydropyridin-3-yl)-6-(4-chlorophenyl)-2-(2,4-dimethoxypyrimidin-5-yl)-1-methyl-5,6-dihydropyrrolo[3,4-b]pyrrol-4(1H)-one] showed an IC50 on CREBBP of 205 nM. In the assay with K-562, the GI50 stood at 154 nM and the “K-562 TGI” value was above 10000 nM.
For the molecule `Cn1ccc2c1[C@@H](c1ccc(Cl)cc1)N(c1cc(Cl)c(=O)n(C)c1)C2=O` [Example 77, (R)-5-(5-chloro-1-methyl-6-oxo-1,6-dihydropyridin-3-yl)-6-(4-chlorophenyl)-1-methyl-5,6-dihydropyrrolo[3,4-b]pyrrol-4(1H)-one], the IC50 at CREBBP is 1300 nM. Further, in the assay with K-562, growth was halved (GI50) at 342 nM and the “K-562 TGI” value is above 10000 nM.
Molecule `Cc1cc2c(n1C)[C@@H](c1ccc(Cl)cc1)N(c1cc(Cl)c(=O)n(C)c1)C2=O` [Example 75, (R)-5-(5-chloro-1-methyl-6-oxo-1,6-dihydropyridin-3-yl)-6-(4-chlorophenyl)-1,2-dimethyl-5,6-dihydropyrrolo[3,4-b]pyrrol-4(1H)-one] yielded an IC50 at CREBBP of 790 nM. In the assay with K-562, the GI50 is 289 nM and the “K-562 TGI” value was above 10000 nM.
For `Cc1cn(C)c2c1C(=O)N(c1cc(C)c(=O)n(C)c1)C2c1ccc(Cl)cc1` (stereo not drawn) [Example 34, 6-(4-chlorophenyl)-5-(1,5-dimethyl-6-oxo-1,6-dihydropyridin-3-yl)-1,3-dimethyl-5,6-dihydropyrrolo[3,4-b]pyrrol-4(1H)-one], in that order: 1900 nM, 241 nM and above 10000 nM.
Take `Cc1cn(C)c2c1C(=O)N(c1cc(C)c3nnc(C)n3c1)C2c1ccc(Cl)cc1` (stereo not drawn) [Example 33, 6-(4-chlorophenyl)-5-(3,8-dimethyl-[1,2,4]triazolo[4,3-a]pyridin-6-yl)-1,3-di methyl-5,6-dihydropyrrolo[3,4-b]pyrrol-4(1H)-one]: the IC50 on CREBBP turned out to be 10100 nM. In the assay with K-562, halving of growth (GI50) required 97.4 nM and the “K-562 TGI” value was above 10000 nM.
Turning to `COc1ncc(-c2cc3c(n2C)[C@@H](c2ccc(Cl)cc2)N(c2cc(C)c(=O)n(C)c2)C3=O)cn1` [Example 56, (R)-6-(4-chlorophenyl)-5-(1,5-dimethyl-6-oxo-1,6-dihydropyridin-3-yl)-2-(2-methoxypyrimidin-5-yl)-1-methyl-5,6-dihydropyrrolo[3,4-b]pyrrol-4(1H)-one], at CREBBP, the IC50 stood at 130 nM. In addition, in the assay with K-562, the GI50 came to 103 nM and the “K-562 TGI” value is above 10000 nM.
The corresponding values for `COc1ncc(-c2cc3c(n2C)[C@@H](c2ccc(Cl)cc2)N(c2cc(C)c(=O)n(C)c2)C3=O)c(OC)n1` [Example 54, (R)-6-(4-chlorophenyl)-2-(2,4-dimethoxypyrimidin-5-yl)-5-(1,5-dimethyl-6-oxo-1,6-dihydropyridin-3-yl)-1-methyl-5,6-dihydropyrrolo[3,4-b]pyrrol-4(1H)-one] are 91 nM, 48.3 nM and above 10000 nM.
The corresponding values for `Cc1cc(N2C(=O)c3cc(-c4ccn(C)c(=O)c4)n(C)c3C2c2ccc(Cl)cc2)cn(C)c1=O` (stereo not drawn) [Example 45, 6-(4-chlorophenyl)-5-(1,5-dimethyl-6-oxo-1,6-dihydropyridin-3-yl)-1-methyl-2-(1-methyl-2-oxo-1,2-dihydropyridin-4-yl)-5,6-dihydropyrrolo[3,4-b]pyrrol-4(1H)-one] are 370 nM, 345 nM and above 10000 nM.
The corresponding values for `Cn1c(-c2ccc(=O)n(C)c2)cc2c1C(c1ccc(Cl)cc1)N(c1cc(Cl)c(=O)n(C)c1)C2=O` (stereo not drawn) [Example 42, 5-(5-chloro-1-methyl-6-oxo-1,6-dihydropyridin-3-yl)-6-(4-chlorophenyl)-1-methyl-2-(1-methyl-6-oxo-1,6-dihydropyridin-3-yl)-5,6-dihydropyrrolo[3,4-b]pyrrol-4(1H)-one] are 310 nM, 3190 nM and above 10000 nM.
